Source: publication PMC10550967, “Structure of the ceramide-bound SPOTS complex” (Nature Communications, 2023)

Experiments:
[1] = target: T1, SPOTS complex (monomeric, with Sac1) (Saccharomyces cerevisiae, UniProt P25045+P40970+P53224, P53224:S51A/P53224:S52A/P53224:S53A); assay: colorimetric CoA release assay; type: biochemical; conditions: 30 µM PLP, 0.008% GDN, pH 6.8, RT, 1 h, FLAG-purified complex (mixture of SPOT and SPOTS), catalytic site Lcb1/Lcb2
T1 construct: gene LCB1; co-overexpressed in S. cerevisiae (GAL1 promoter); 3xFLAG inserted between codons 9 and 10 of LCB1, kept; GDN-solubilised; monomeric 1:1:1:1:1; Site chains differ by ligand (see pair conditions); The purified sample also holds Sac1-free SPOT monomer and dimer; with Serine palmitoyltransferase-regulating protein TSC3; Phosphoinositide phosphatase SAC1
T1 sequence (P25045 whole entry, one chain of several): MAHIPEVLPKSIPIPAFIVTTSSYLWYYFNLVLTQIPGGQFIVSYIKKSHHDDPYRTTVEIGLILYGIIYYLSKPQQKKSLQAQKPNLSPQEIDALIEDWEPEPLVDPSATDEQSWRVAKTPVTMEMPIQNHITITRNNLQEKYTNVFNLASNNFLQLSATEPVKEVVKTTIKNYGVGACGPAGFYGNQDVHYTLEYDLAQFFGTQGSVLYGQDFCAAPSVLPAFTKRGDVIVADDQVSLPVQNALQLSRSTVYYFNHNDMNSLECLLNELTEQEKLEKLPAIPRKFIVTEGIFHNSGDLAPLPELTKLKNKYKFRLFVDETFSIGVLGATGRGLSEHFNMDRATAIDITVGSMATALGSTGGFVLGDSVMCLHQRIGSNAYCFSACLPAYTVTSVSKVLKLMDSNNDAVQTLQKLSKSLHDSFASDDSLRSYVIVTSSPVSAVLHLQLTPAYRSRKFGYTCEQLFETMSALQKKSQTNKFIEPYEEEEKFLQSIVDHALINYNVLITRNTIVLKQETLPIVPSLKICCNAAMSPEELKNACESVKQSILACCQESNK
T1 sequence (P53224 whole entry S51A/S52A/S53A, one chain of several): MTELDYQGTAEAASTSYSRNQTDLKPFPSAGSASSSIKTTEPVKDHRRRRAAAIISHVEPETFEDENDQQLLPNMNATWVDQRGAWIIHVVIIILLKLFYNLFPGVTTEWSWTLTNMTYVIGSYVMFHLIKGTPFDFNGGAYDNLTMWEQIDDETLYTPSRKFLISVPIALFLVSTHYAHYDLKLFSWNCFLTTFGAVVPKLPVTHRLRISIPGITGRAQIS
T1 sequence (Q3E790 whole entry partner, one chain of several): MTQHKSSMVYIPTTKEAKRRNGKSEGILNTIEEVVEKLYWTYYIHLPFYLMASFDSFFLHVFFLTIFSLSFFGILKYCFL
T1 sequence (P32368 whole entry partner, one chain of several): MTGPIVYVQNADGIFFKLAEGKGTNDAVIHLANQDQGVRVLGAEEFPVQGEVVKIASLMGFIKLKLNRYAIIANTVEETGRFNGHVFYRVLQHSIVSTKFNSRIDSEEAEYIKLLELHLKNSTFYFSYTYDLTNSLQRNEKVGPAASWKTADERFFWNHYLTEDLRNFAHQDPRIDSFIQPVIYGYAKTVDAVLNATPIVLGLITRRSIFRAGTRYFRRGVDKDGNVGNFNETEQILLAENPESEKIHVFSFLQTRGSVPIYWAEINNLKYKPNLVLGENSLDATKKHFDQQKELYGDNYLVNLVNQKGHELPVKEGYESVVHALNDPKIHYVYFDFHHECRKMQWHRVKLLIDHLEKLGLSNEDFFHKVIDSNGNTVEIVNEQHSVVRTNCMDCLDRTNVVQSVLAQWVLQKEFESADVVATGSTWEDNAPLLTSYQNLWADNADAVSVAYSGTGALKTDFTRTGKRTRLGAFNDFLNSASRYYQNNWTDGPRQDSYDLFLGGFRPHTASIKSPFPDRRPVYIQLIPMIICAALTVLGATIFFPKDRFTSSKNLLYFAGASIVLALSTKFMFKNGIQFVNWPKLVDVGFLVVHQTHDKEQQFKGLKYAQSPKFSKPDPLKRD

[2] = target: T2, SPOT complex (monomer) (Saccharomyces cerevisiae, UniProt P25045+P40970+P53224, P53224:S51A/P53224:S52A/P53224:S53A); assay: cryo-EM structure, […] Å; type: binding; conditions: site: pocket of Lcb1 TM0a helix and Orm1 TM4, three molecules; co-purified endogenous lipid
T2 construct: gene LCB1; same preparation as P1, cryo-EM class without Sac1; monomeric; 3xFLAG inserted between codons 9 and 10 of LCB1; GDN-solubilised; Site chains differ by ligand (see pair conditions); with Serine palmitoyltransferase-regulating protein TSC3
T2 sequence (P25045 whole entry, one chain of several): as the sequence (P25045 whole entry, one chain of several) above
T2 sequence (P53224 whole entry S51A/S52A/S53A, one chain of several): as the sequence (P53224 whole entry S51A/S52A/S53A, one chain of several) above
T2 sequence (Q3E790 whole entry partner, one chain of several): as the sequence (Q3E790 whole entry partner, one chain of several) above

[3] = target: T1, SPOTS complex (monomeric, with Sac1); assay: cryo-EM structure, […] Å; coupled enzymatic assay of bound sterol; type: binding; conditions: site: pocket of Lcb1 TM0a helix and Orm1 TM4, three molecules; co-purified endogenous lipid
[4] = target: the molecule itself; assay: cryo-EM structure; single-particle cryo-EM of the FLAG-purified complex in GDN, 10 mg/ml; one dataset gave a C2 symmetric SPOT dimer, a SPOT monomer and a SPOTS monomer with Sac1

CCCCCCCCCCCCCCCC(=O)SCCNC(=O)CCNC(=O)[C@H](O)C(C)(C)COP(=O)(O)OP(=O)(O)OC[C@H]1O[C@@H](n2cnc3c(N)ncnc32)[C@H](O)[C@@H]1OP(=O)(O)O [palmitoyl-CoA]
colorimetric CoA release assay ([1]; 15 mM L-serine): release of CoA-SH from the SPT-catalyzed condensation of palmitoyl-CoA and L-serine

N[C@@H](CO)C(=O)O [L-serine]
colorimetric CoA release assay ([1]; 100 µM palmitoyl-CoA): release of CoA-SH from the SPT-catalyzed condensation of palmitoyl-CoA and L-serine

CC(C)[C@@H](C)/C=C/[C@@H](C)[C@H]1CC[C@H]2C3=CC=C4C[C@@H](O)CC[C@]4(C)[C@H]3CC[C@]12C [ergosterol]
cryo-EM structure, 3.4 Å [2]: in which three structurally well-resolved ergosterol molecules are positioned
cryo-EM structure, 3.3 Å; coupled enzymatic assay of bound sterol [3]: Lcb1-TM0a directly interacts with three molecules of ergosterol

B1: Lcb2 (enzyme, S. cerevisiae)
chain: MSTPANYTRVPLCEPEELPDDIQKENEYGTLDSPGHLYQVKSRHGKPLPEPVVDTPPYYISLLTYLNYLILIILGHVHDFLGMTFQKNKHLDLLEHDGLAPWFSNFESFYVRRIKMRIDDCFSRPTTGVPGRFIRCIDRISHNINEYFTYSGAVYPCMNLSSYNYLGFAQSKGQCTDAALESVDKYSIQSGGPRAQIGTTDLHIKAEKLVARFIGKEDALVFSMGYGTNANLFNAFLDKKCLVISDELNHTSIRTGVRLSGAAVRTFKHGDMVGLEKLIREQIVLGQPKTNRPWKKILICAEGLFSMEGTLCNLPKLVELKKKYKCYLFIDEAHSIGAMGPTGRGVCEIFGVDPKDVDILMGTFTKSFGAAGGYIAADQWIIDRLRLDLTTVSYSESMPAPVLAQTISSLQTISGEICPGQGTERLQRIAFNSRYLRLALQRLGFIVYGVADSPVIPLLLYCPSKMPAFSRMMLQRRIAVVVVAYPATPLIESRVRFCMSASLTKEDIDYLLRHVSEVGDKLNLKSNSGKSSYDGKRQRWDIEEVIRRTPEDCKDDKYFVN
modifications: PLP forms an internal aldimine with K366
notes: Lcb2, catalytic subunit of serine palmitoyltransferase, S. cerevisiae; also called SPT subunit; source: S. cerevisiae, co-expressed with the other SPOTS subunits under the GAL1 promoter
binding result [4]: binds
